From ChEMBL document CHEMBL3244224, “Synthesis and central nervous system activity of 2-arylidene-4-aminoalkyl-2H-1,4-benzoxazin-3(4H)-ones and related compounds” (J Med Chem, 1977)
Calls of active or inactive are those of the source. No cut-off for these calls is given here.

Key:
[1] = (§1) Antagonist activity at dopamine receptor in Sprague-Dawley rat olfactory tubercles assessed as inhibition of dopamine-induced adenylate cyclase activity after 5 mins; format: tissue-based, Olfactory tubercle; settings: read-out: I50
[2] = system: Rattus norvegicus; test: Central nervous system activity in ip dosed rat assessed as dose required to cause decreased reflex action by measuring decreased grip strength; format: functional
[3] = system: Rattus norvegicus; test: Central nervous system activity in ip dosed rat assessed as dose required to cause depression by measuring decreased motor activity; format: functional
[4] = (§2) Antagonist activity at dopamine receptor in Sprague-Dawley rat olfactory tubercles assessed as inhibition of adenylate cyclase activity after 5 mins; format: tissue-based, Olfactory tubercle; settings: read-out: I50
[5] = species on record: Rattus norvegicus; test: Antagonist activity at dopamine receptor in Sprague-Dawley rat olfactory tubercles assessed as inhibition of adenylate cyclase activity at 10 uM after 5 mins; format: tissue-based; settings: Olfactory tubercle
[6] = species on record: Rattus norvegicus; test: as §2; format: tissue-based; settings: Olfactory tubercle
[7] = species on record: Rattus norvegicus; test: as §1; format: tissue-based; settings: Olfactory tubercle
[8] = species on record: Rattus norvegicus; test: Antagonist activity at dopamine receptor in Sprague-Dawley rat olfactory tubercles assessed as inhibition of adenylate cyclase activity at 100 uM after 5 mins; format: tissue-based; settings: Olfactory tubercle
[9] = species on record: Rattus norvegicus; test: Antagonist activity at dopamine receptor in Sprague-Dawley rat olfactory tubercles assessed as inhibition of dopamine-induced adenylate cyclase activity at 100 uM after 5 mins; format: tissue-based; settings: Olfactory tubercle

CCN(CC)CCCN1C(=O)/C(=C/c2ccccc2)Oc2ccccc21.Cl
IC50 [1]: 60 µM | ED [2]: 12.5 mg/kg | ED [3]: 50 mg/kg | IC50 [4]: > 100 µM

Cc1ccc2c(c1)N(CCCN(C)C)C(=O)/C(=C/c1ccccc1)O2.O=C(O)CCC(=O)O
IC50 [1]: 15 µM | ED [2]: 100 mg/kg | ED [3]: 100 mg/kg | IC50 [4]: 450 µM

OCCN1CCN(CCCN2c3ccccc3Sc3ccc(C(F)(F)F)cc32)CC1 [FLUPHENAZINE]
IC50 [1]: 0.5 µM | inhibition [5]: < 10% | I50 [6]: inactive

Cl.O=C1/C(=C/c2ccccc2)Oc2ccccc2N1CCCN1CCN(c2ccccc2)CC1
I50 [7]: inactive | ED [2]: 100 mg/kg | ED [3]: 100 mg/kg | inhibition [8]: < 10% | I50 [6]: inactive | inhibition [9]: < 10%

CN(C)CCN1C(=O)C(Cc2ccccc2)Oc2ccccc21.Cl (stereo not given)
ED [2]: 200 mg/kg | ED [3]: >200 mg/kg

CN(C)CCCCN1C(=O)/C(=C/c2ccccc2)Oc2ccccc21.Cl
IC50 [1]: 80 µM | ED [2]: 50 mg/kg | ED [3]: >200 mg/kg | IC50 [4]: > 200 µM

Cl.O=C1/C(=C/c2ccccc2)Oc2ccccc2N1CCN1CCOCC1
I50 [7]: inactive | ED [2]: >200 mg/kg | ED [3]: >200 mg/kg | inhibition [8]: < 10% | I50 [6]: inactive | inhibition [9]: < 10%

CN(C)CCCN1C(=O)/C(=C/c2ccccc2Cl)Oc2ccccc21.Cl
IC50 [1]: 30 µM | ED [2]: 100 mg/kg | ED [3]: >200 mg/kg | IC50 [4]: 170 µM

CN(C)CCCN1C(=O)/C(=C/c2ccccc2)Oc2ccccc21.Cl
IC50 [1]: 33 µM | ED [2]: 25 mg/kg | ED [3]: 25 mg/kg | IC50 [4]: 600 µM

O=C1Nc2ccccc2O/C1=C\c1ccccc1
I50 [7]: inactive | ED [2]: >200 mg/kg | ED [3]: >200 mg/kg | inhibition [8]: < 10% | I50 [6]: inactive | inhibition [9]: < 10%

CN(C)CCCN1C(=O)C(Cc2ccccc2)Oc2ccccc21.Cl (stereo not given)
ED [2]: 50 mg/kg | ED [3]: 100 mg/kg

CN(C)CCCN1C(=O)/C(=C/c2ccccc2)Oc2ccc(Cl)cc21.Cl
IC50 [1]: 100 µM | ED [2]: 200 mg/kg | ED [3]: >200 mg/kg | IC50 [4]: > 100 µM

CN(C)CCCN1C(=O)C(Cc2ccccc2)Oc2ccc(Cl)cc21.Cl (stereo not given)
ED [2]: 100 mg/kg | ED [3]: >200 mg/kg

CN(C)CCN1C(=O)/C(=C/c2ccccc2)Oc2ccccc21.Cl
IC50 [1]: 100 µM | ED [2]: 50 mg/kg | ED [3]: 50 mg/kg | IC50 [4]: > 100 µM

Cl.O=C1/C(=C/c2ccccc2)Oc2ccccc2N1CCCN1CCN(CO)CC1
IC50 [1]: 54 µM | ED [2]: 100 mg/kg | ED [3]: 100 mg/kg | IC50 [4]: > 400 µM

CN1CCN(CCCN2C(=O)/C(=C/c3ccccc3)Oc3ccc(Cl)cc32)CC1
IC50 [1]: > 500 µM | ED [2]: >200 mg/kg | ED [3]: >200 mg/kg | IC50 [4]: > 500 µM

CN1CCN(C2=Nc3cc(Cl)ccc3Nc3ccccc32)CC1 [CLOZAPINE]
IC50 [1]: 6 µM | inhibition [8]: < 10% | I50 [6]: inactive

COc1ccc2c(c1)N(CCCN(C)C)C(=O)/C(=C/c1ccccc1)O2.Cl
IC50 [1]: 60 µM | ED [2]: >200 mg/kg | ED [3]: >200 mg/kg | IC50 [4]: > 100 µM

C[N+](C)(C)CCCN1C(=O)/C(=C/c2ccccc2)Oc2ccccc21.[Cl-]
IC50 [1]: 650 µM | ED [2]: 50 mg/kg | ED [3]: 50 mg/kg | IC50 [4]: 1000 µM

CCCC(C)(COC(N)=O)COC(N)=O [MEPROBAMATE]
ED [2]: 25 mg/kg | ED [3]: 50 mg/kg

CN1CCN(CCCN2C(=O)/C(=C/c3ccccc3)Oc3ccccc32)CC1.Cl
IC50 [1]: 35 µM | ED [2]: 12.5 mg/kg | ED [3]: 50 mg/kg | IC50 [4]: 450 µM

CN1CCN(CCCN2C(=O)C(Cc3ccccc3)Oc3ccccc32)CC1.Cl (stereo not given)
ED [2]: 50 mg/kg | ED [3]: >200 mg/kg

CN(C)CCCN1C(=O)/C(=C/c2ccc(Cl)cc2)Oc2ccccc21.Cl
IC50 [1]: 30 µM | ED [2]: 100 mg/kg | ED [3]: 100 mg/kg | IC50 [4]: 450 µM

CN(C)CCCN1C(=O)/C(=C/c2cccs2)Oc2ccccc21.Cl
IC50 [1]: 56 µM | ED [2]: 100 mg/kg | ED [3]: 100 mg/kg | IC50 [4]: > 200 µM
